According to article PMC8162746 (Cancer chemotherapy and pharmacology, 2021):
Where “and” joins values, the source holds several entries; their conditions need not be identical. Equal entries are not always repeated. Entries after “also recorded” stand apart in the source; their conditions may differ. Where two headings read alike, the source gives them in different places.

Tests used:
[1] = cited from earlier work
[2] = system: patients with multiple myeloma and T- and B-cell lymphomas; settings: cited from earlier work
[3] = system: patients with primary CNS and advanced solid tumors; assay: Phase I dose-escalation trial of oral AR-42: safety and tolerability; assay type: in vivo
[4] = 17 patients evaluable for toxicity

## CC(C)[C@H](C(=O)Nc1ccc(C(=O)NO)cc1)c1ccccc1 [AR-42]
[1]; mouse model
  Blood brain barrier penetration: crossed the blood brain barrier
[1]; rodents
  Blood brain barrier penetration: penetrates the blood brain barrier
[2]; patients with grade 1 QTc prolongation
  Mean QTc change: 27.4 ms
[2]; phase I study in hematologic malignancies
  Grade 1 QTc prolongation: 8 of 27
[2]; phase I trial in hematologic malignancies
  Thrombocytopenia: 16 of 27
[2]; three times weekly for three weeks of a 28-day cycle
  Maximum tolerated dose (MTD): 40 mg
[3]; 17 patients
  Treatment-related deaths: no treatment-related deaths
[3]; [4]
  Grade 3 TRAE anemia: 2 n
  Grade 3 TRAE anorexia: 1 n
  Grade 3 TRAE hematuria: 1 n
  Grade 3 TRAE hypophosphatemia: 3 n
  Grade 3 TRAE lymphopenia: 3 n
  Grade 3 TRAE nausea: 2 n
  Grade 3 TRAE thrombocytopenia: 5 n
  Grade 3 TRAE venous thromboembolism: 1 n
  Grade 3 TRAE weight loss: 1 n
[3]; 17 patients, event at 30 mg
  Cardiac toxicity observed (QTc prolongation): one patient with a grade 1 QTc prolongation; also recorded: one patient who experienced a grade 1 QTc prolongation
[3]; N=17, 30-80 mg
  Anemia, treatment-related adverse event, All grades: 10 n (%) and 10 (58.8%) n (%)
  Anemia, treatment-related adverse event, Grade 1–2: 8 (47.1%) n (%)
  Anemia, treatment-related adverse event, Grade 3–4: 2 (11.8%) n (%)
  Anorexia, treatment-related adverse event, All grades: 5 (29.4%) n (%)
  Anorexia, treatment-related adverse event, Grade 1–2: 4 (23.5%) n (%)
  Anorexia, treatment-related adverse event, Grade 3–4: 1 (5.9%) n (%)
  Constipation, treatment-related adverse event, All grades: 4 (23.5%) n (%)
  Constipation, treatment-related adverse event, Grade 1–2: 4 (23.5%) n (%)
  Cough, treatment-related adverse event, All grades: 2 (11.8%) n (%)
  Cough, treatment-related adverse event, Grade 1–2: 2 (11.8%) n (%)
  Dehydration, treatment-related adverse event, All grades: 2 (11.8%) n (%)
  Dehydration, treatment-related adverse event, Grade 1–2: 2 (11.8%) n (%)
  Diarrhea, treatment-related adverse event, All grades: 6 n (%) and 6 (35.3%) n (%)
  Diarrhea, treatment-related adverse event, Grade 1–2: 6 (35.3%) n (%)
  Dizziness, treatment-related adverse event, All grades: 4 (23.5%) n (%)
  Dizziness, treatment-related adverse event, Grade 1–2: 4 (23.5%) n (%)
  Dry mouth, treatment-related adverse event, All grades: 3 (17.6%) n (%)
  Dry mouth, treatment-related adverse event, Grade 1–2: 3 (17.6%) n (%)
  Dysgeusia, treatment-related adverse event, All grades: 3 (17.6%) n (%)
  Dysgeusia, treatment-related adverse event, Grade 1–2: 3 (17.6%) n (%)
  Elevated alkaline phosphatase, treatment-related adverse event, All grades: 4 (23.5%) n (%)
  Elevated alkaline phosphatase, treatment-related adverse event, Grade 1–2: 4 (23.5%) n (%)
  Elevated creatinine, treatment-related adverse event, All grades: 8 n (%) and 8 (47.1%) n (%)
  Elevated creatinine, treatment-related adverse event, Grade 1–2: 8 (47.1%) n (%)
  Fatigue, treatment-related adverse event, All grades: 11 (64.7%) n (%)
  Fatigue, treatment-related adverse event, Grade 1–2: 11 (64.7%) n (%)
  Headache, treatment-related adverse event, All grades: 3 (17.6%) n (%)
  Headache, treatment-related adverse event, Grade 1–2: 3 (17.6%) n (%)
  Hematuria, treatment-related adverse event, All grades: 1 (5.9%) n (%)
  Hematuria, treatment-related adverse event, Grade 3–4: 1 (5.9%) n (%)
  Hypermagnesemia, treatment-related adverse event, All grades: 2 (11.8%) n (%)
  Hypermagnesemia, treatment-related adverse event, Grade 1–2: 2 (11.8%) n (%)
  Hypernatremia, treatment-related adverse event, All grades: 2 (11.8%) n (%)
  Hypernatremia, treatment-related adverse event, Grade 1–2: 2 (11.8%) n (%)
  Hypersomnia, treatment-related adverse event, All grades: 2 (11.8%) n (%)
  Hypersomnia, treatment-related adverse event, Grade 1–2: 2 (11.8%) n (%)
  Hypoalbuminemia, treatment-related adverse event, All grades: 5 (29.4%) n (%)
  Hypoalbuminemia, treatment-related adverse event, Grade 1–2: 5 (29.4%) n (%)
  Hyponatremia, treatment-related adverse event, All grades: 3 (17.6%) n (%)
  Hyponatremia, treatment-related adverse event, Grade 1–2: 3 (17.6%) n (%)
  Hypophosphatemia, treatment-related adverse event, All grades: 7 n (%) and 7 (41.2%) n (%)
  Hypophosphatemia, treatment-related adverse event, Grade 1–2: 4 (23.5%) n (%)
  Hypophosphatemia, treatment-related adverse event, Grade 3–4: 3 (17.6%) n (%)
  Impaired concentration, treatment-related adverse event, All grades: 3 (17.6%) n (%)
  Impaired concentration, treatment-related adverse event, Grade 1–2: 3 (17.6%) n (%)
  Leukopenia, treatment-related adverse event, All grades: 8 n (%) and 8 (47.1%) n (%)
  Leukopenia, treatment-related adverse event, Grade 1–2: 8 (47.1%) n (%)
  Limb edema, treatment-related adverse event, All grades: 2 (11.8%) n (%)
  Limb edema, treatment-related adverse event, Grade 1–2: 2 (11.8%) n (%)
